This test in a line: The compound was evaluated for the inhibitory activity against human thrombin.

pKi: −log10 of the molar value.

For the compound `CC1(C)CNc2c(cccc2S(=O)(=O)NC(CCCNC(=N)N)C(=O)N2CCC(CCO)CC2)C1` (stereo unspecified) [3,3-Dimethyl-1,2,3,4-tetrahydro-quinoline-8-sulfonic acid {4-guanidino-1-[4-(2-hydroxy-ethyl)-piperidine-1-carbonyl]-butyl}-amide], the pKi (in general, −log10 of the Ki, conventionally taken in molar units) is 7.49.

These data come from BindingDB's records for doi:10.1021/jm9811209 (Novartis Horsham Research Centre, 1999).
